Assay results taken from patent publication US8501734B2, “Medical intervention in haematological cancers” (Oncotyrol-Center for Personalized Cancer Medicine GmbH …, priority 2008, dated 2013).
Where a name gives a salt, the structure may show the parent alone.

Key:
OPM2 cells = experiment: Annexin V/PI apoptosis assay (FACS), OPM2 cells; format: cell-based; parameters: apoptosis induction: unit not given here; details: OPM2 cells; for apoptosis induction, combination: Akt inhibitor + Imiquimod 20 μg/ml; for apoptosis induction, single agent: Imiquimod 20 μg/ml or Akt inhibitor alone
Procedure: (§1) After treatment adherent cells were trypsinized (as described before), and resuspended in corresponding full medium. Suspension cells or trypsinized adherent cells, supernatant and washing solution (1×PBS from washing before trypsinization) were pooled and then spun down (300 g for 3 min) washed in 2 ml and resuspended in 1000 of annexin V binding buffer and mixed with 2 μg/ml annexin V-Allophycocyanin (APC) (BD-Pharmingen, San Diego, Calif., USA) and 50 ng/ml of propidium iodide (PI; Sigma Aldrich). At least 10.000 cells were measured per sample using a Becton Dickinson FACSCalibur flow Cytometer (San Jose, Calif., USA). Percentage of Annexin V negative and PI negative cells were depicted in the figures. For the analysis of the pro-apoptotic activity of Imiquimod® in primary MM cells and non-malignant BMMCs, 5×10^5 cells BMMCs cells were treated with or without 40 μg/ml Imiquimod® for the indicated time periods. Cells were then harvested and washed twice with PBS. Detection of apoptotic cells was performed using the annexin V/PI assay according to manufacturers' instruction. Briefly, BMMCs were stained with a mixture of annexin V/FITC (Alexis Coorp., Laeufelfingen, Switzerland), propidium iodide (Sigma), anti-CD38-PE and anti-CD45-PC5 for 15 min at room temperature and immediately analyzed by flow cytometry. The percentages of viable cells (i.e. cells negative for annexin V/FITC and PI) within the MM (CD38^posCD45^low/absent) and non-MM fraction (CD38^neg/CD45^pos) were determined by flow cytometry.
Cells were cultured as described before and, treated with 40 μg/ml Imiquimod® or Gardiquimod® for 24 h, and apoptosis was assayed by AnnexinV/PI staining and FACS analysis.
(§2) Adherent cells were grown in 24-well plates to confluence and treated with 40 μg/ml Imiquimod® for 24 h. Cells were then trypsinized, suspended in full medium, stained for AnnexinV/PI and apoptosis was measured as described before. Suspension cells (250.000) were treated with 40 μg/ml Imiquimod® for 24 h, stained for Annexin/PI and apoptosis was measured as described above (Annexin V/Propidium Iodide apoptosis Assay).
(§3) OPM-2 and U266 cells (2.5×10^5 in 500 μl) were treated with either Imiquimod® alone (10 μg/500 μl), various inhibitors/drugs alone or with the combination of Imiquimod® and inhibitors for 24 or 48 h. In the controls the solvent of the drug has been added in appropriate amounts. Cells were then AnnexinV/PI stained and apoptosis measured as described before.

U266 cells = experiment: Annexin V/PI apoptosis assay (FACS), U266 cells; format: cell-based; parameters: apoptosis induction: unit not given here; note: key: 0 for no; + for low; ++: + indicates the range of apoptosis induction; +++: + indicates the range of apoptosis induction; ++++ for very strong apoptosis induction
Procedure: as §1, §2, §3

Flk-1 = details: cited from earlier work
[1] = system: Raji, Daudi, Ramos, Jurkat, C7H2 cell lines; experiment: Annexin V/PI apoptosis assay, non-multiple myeloma suspension cell lines; format: cell-based; details: Raji, Ramos, Jurkat, 24 h
Procedure: as §1, §2

[2] = system: peripheral blood mononuclear cells (PBMCs); experiment: Annexin V/PI apoptosis assay, PBMCs from healthy donors; format: cell-based, human; details: PBMCs from healthy donors, 48 h, 5 μM Akti1/2 + 20 μg/ml Imiquimod
Procedure: PBMCs were prepared using separation via Ficoll density gradient centrifugation (Biochrom AG, Berlin, Germany) according to the protocol of the manufacturer.
as §1, §2

Akt phosphorylation = Akt phosphorylation by Western blot with phospho-Akt antibody in OPM2 cells; format: cell-based
Procedure: Cells were lysed in lysis-IP-Buffer supplemented with protease inhibitors and sodium orthovanadate. 10 μg of lysate were separated by SDS-PAGE (10% polyacrylamide) and transferred to methanol activated Hypond-P PVDF-membranes (Amersham, Freiburg, Germany) by semi-dry blotting. Membranes were blocked in a 3% bovine serum albumin solution or 5% non fat dry milk solution in phosphate buffered saline (PBS) with 0.1% Tween 20 (PBT). Primary antibodies were applied in blocking solution for 1 h at room temperature or over night at 4° C. Membranes were washed in PBT and incubated with corresponding secondary antibodies in 5% non fat dry milk in PBT for 1 h at room temperature. Cells were washed with PBT, incubated with ECL solution and exposed in a Fluorchem 5500 (Biozym, Oldendorf, Germany).
The efficiency of the inhibition of Akt phosphorylation was monitored by Western blotting with antibodies against phospho-Akt. Antibody for actin served as a loading control (FIG. 7B).

[3] = system: multiple myeloma cell lines; experiment: Annexin V/PI apoptosis assay, multiple myeloma cell line panel; format: cell-based; details: OPM2, LP-1, RPMI, U266, 24 h
Procedure: as §1, §2

[4] = system: PH domain-lacking Akts, PKA, PKC, and SGK; details: concentrations as high as 50 μM; cited from earlier work
[5] = cited from earlier work
Akt = details: cited from earlier work
PI 3-K, PDK1, or SGK1 = details: cited from earlier work
[6] = system: Rh (rhabdomyosarcoma) cell lines; details: read-out: IC50 growth suppression; cited from earlier work
[7] = in vivo; cited from earlier work
[8] = 24 h, Imi 20 μg/ml + drug 10 μM
[9] = 24 h, Imi 20 μg/ml + drug 50 μM
[10] = 48 h, Imi 20 μg/ml + drug 10 μM
[11] = 48 h, Imi 20 μg/ml + drug 50 μM
[12] = 24 h, Imi 20 μg/ml + drug 100 nM
[13] = 48 h, Imi 20 μg/ml + drug 100 nM

CC(C)c1cc(/C=C(\C#N)C(=O)NCCCc2ccccc2)cc(C(C)C)c1O [SU1498]
apoptosis induction (OPM2 cells; 24 h, Imi 20 μg/ml + drug 1 μM): +
apoptosis induction (OPM2 cells; [8]): ++
apoptosis induction (OPM2 cells; [9]): ++
apoptosis induction (OPM2 cells; 24 h, drug alone 1 μM): 0
apoptosis induction (OPM2 cells; 24 h, drug alone 10 μM): +
apoptosis induction (OPM2 cells; 24 h, drug alone 50 μM): +
apoptosis induction (OPM2 cells; 48 h, Imi 20 μg/ml + drug 1 μM): ++
apoptosis induction (OPM2 cells; [10]): +++
apoptosis induction (OPM2 cells; [11]): +++
apoptosis induction (OPM2 cells; 48 h, drug alone 1 μM): 0
apoptosis induction (OPM2 cells; 48 h, drug alone 10 μM): +
apoptosis induction (OPM2 cells; 48 h, drug alone 50 μM): ++
apoptosis induction (U266 cells; 24 h, Imi 20 μg/ml + drug 1 μM): +
apoptosis induction (U266 cells; [8]): ++
apoptosis induction (U266 cells; [9]): ++
apoptosis induction (U266 cells; 24 h, drug alone 1 μM): 0
apoptosis induction (U266 cells; 24 h, drug alone 10 μM): +
apoptosis induction (U266 cells; 24 h, drug alone 50 μM): +
apoptosis induction (U266 cells; 48 h, Imi 20 μg/ml + drug 1 μM): ++
apoptosis induction (U266 cells; [10]): ++
apoptosis induction (U266 cells; [11]): ++
apoptosis induction (U266 cells; 48 h, drug alone 1 μM): 0
apoptosis induction (U266 cells; 48 h, drug alone 10 μM): ++
apoptosis induction (U266 cells; 48 h, drug alone 50 μM): ++
IC50 (Flk-1): 700 nM

O=c1[nH]c2ccccc2n1C1CCN(Cc2ccc(-c3nc4cc5nc[nH]c5cc4nc3-c3ccccc3)cc2)CC1 [Akti1/2, 1,3-Dihydro-1-(1-((4-(6-phenyl-1H-imidazo[4,5-g]quinoxalin-7-yl)phenyl)methyl)-4-piperidinyl)-2H-benzimidazol-2-one]
apoptosis induction, combination (OPM2 cells; 24 h): nearly all cells died
apoptosis induction, single agent (OPM2 cells; 24 h): some apoptosis
apoptosis induction, combination ([1]; Daudi, C7H2, 5 μM Akti1/2 + 20 μg/ml Imiquimod): affected all cell lines to some extent
apoptosis induction ([1]; C7H2 (exception Daudi), 5 μM alone): only a mild effect
sensitivity of PBMCs (general toxicity of the combination) [2]: as sensitive as U266 cells
phosphorylation of Akt (Akt phosphorylation): inhibited the phosphorylation of Akt
apoptosis induction, combination ([3]; Akti1/2 5 or 10 μM + Imiquimod 20 μg/ml): super-additive effect
apoptosis induction, single agent ([3]; Imiquimod 20 μg/ml or Akti1/2 5 or 10 μM alone): some apoptosis
inhibitory effect [4]: does not exhibit any inhibitory effect
solubility [5]: soluble in DMSO

CCN(CC)CCCCN1c2ccccc2Oc2ccc(Cl)cc21 [AktX, 10-(4′-(N-diethylamino)butyl)-2-chlorophenoxazine, HCl]
apoptosis induction, combination (OPM2 cells; 24 h): nearly all cells died
apoptosis induction, single agent (OPM2 cells; 24 h): some apoptosis
phosphorylation of Akt (Akt phosphorylation): inhibited the phosphorylation of Akt
complete inhibition of Akt phosphorylation and in vitro kinase activity (Akt): < 5 µM
effect on PI 3-K, PDK1, or SGK1 (PI 3-K, PDK1, or SGK1): minimal effect
solubility [5]: soluble in H2O
IC50 [6]: 2 to 5 µM

Cn1c2ccccc2c2c3c(c4c5ccccc5n(CCC#N)c4c21)CNC3=O [Gö 6976]
apoptosis induction (OPM2 cells; [12]): +
apoptosis induction (OPM2 cells; 24 h, Imi 20 μg/ml + drug 1 μM): ++
apoptosis induction (OPM2 cells; 24 h, Imi 20 μg/ml + drug 5 μM): ++
apoptosis induction (OPM2 cells; 24 h, drug alone 100 nM): 0
apoptosis induction (OPM2 cells; 24 h, drug alone 1 μM): 0
apoptosis induction (OPM2 cells; 24 h, drug alone 5 μM): 0
apoptosis induction (OPM2 cells; [13]): ++
apoptosis induction (OPM2 cells; 48 h, Imi 20 μg/ml + drug 1 μM): +++
apoptosis induction (OPM2 cells; 48 h, Imi 20 μg/ml + drug 5 μM): +++
apoptosis induction (OPM2 cells; 48 h, drug alone 100 nM): 0
apoptosis induction (OPM2 cells; 48 h, drug alone 1 μM): 0
apoptosis induction (OPM2 cells; 48 h, drug alone 5 μM): +
apoptosis induction (U266 cells; [12]): +
apoptosis induction (U266 cells; 24 h, Imi 20 μg/ml + drug 1 μM): ++
apoptosis induction (U266 cells; 24 h, Imi 20 μg/ml + drug 5 μM): ++
apoptosis induction (U266 cells; 24 h, drug alone 100 nM): 0
apoptosis induction (U266 cells; 24 h, drug alone 1 μM): 0
apoptosis induction (U266 cells; 24 h, drug alone 5 μM): 0
apoptosis induction (U266 cells; [13]): ++
apoptosis induction (U266 cells; 48 h, Imi 20 μg/ml + drug 1 μM): +++
apoptosis induction (U266 cells; 48 h, Imi 20 μg/ml + drug 5 μM): +++
apoptosis induction (U266 cells; 48 h, drug alone 100 nM): 0
apoptosis induction (U266 cells; 48 h, drug alone 1 μM): 0
apoptosis induction (U266 cells; 48 h, drug alone 5 μM): +

CCn1c(-c2nonc2N)nc2c(C#CC(C)(C)O)ncc(OC[C@H]3CCCNC3)c21 [GSK690693]
reason for withdrawal and termination of clinical phase I studies [7]: hyperglycaemia
